ChEMBL document CHEMBL3045208, “Synthesis and Inhibitory Effect on Photosynthetic Electron Transport of 1,3,5-Triazinylcarboxylic Acid Derivatives” (J Pestic Sci, 2005)

What was measured:
[1] = biological target: Photosystem II protein D1 (Spinacia oleracea, UniProt P69560); assay: Inhibition of photosynthetic electron transport protein complex in Spinacia oleracea (spinach) leaf thylakoid
[2] = biological target: Chloroplast thylakoid membrane protein (psbA) (Chenopodium album) (UniProt Q31945); assay: Selectivity ratio of I50 for photosynthetic electron transport protein complex in atrazine-resistant Chenopodium album thylakoid to I50 for photosynthetic electron transport protein complex in wild type Chenopodium album thylakoid
Chain of Chloroplast thylakoid membrane protein (psbA) (Chenopodium album) (Q31945 1-69): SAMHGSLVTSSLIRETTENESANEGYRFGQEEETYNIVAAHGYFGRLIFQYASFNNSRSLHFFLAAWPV

[3] = Inhibition of photosynthetic electron transport protein complex in Spinacia oleracea (spinach) leaf thylakoid

## CCOC(=O)c1nc(C)nc(NCc2ccccc2)n1
[1]
  pI50: 4.88
[2]
  Selectivity ratio: 0.98

## COC(=O)c1nc(C)nc(NCc2ccccc2)n1
[1]
  pI50: 4

## Cc1nc(CF)nc(NCc2ccccc2)n1
[3]
  pI50: 4.98

## CCNc1nc(Cl)nc(NC(C)C)n1 [ATRAZINE]
[2]
  Selectivity ratio: 324
[3]
  pI50: 6.73

## CCOC(=O)c1nc(C)nc(NC(C)C)n1
[1]
  pI50: 6.11
[2]
  Selectivity ratio: 2.45

## C#CCNc1nc(C)nc(C(=O)OCC)n1
[2]
  Selectivity ratio: 1.23

## Cc1nc(NCc2ccccc2)nc(C(F)F)n1
[2]
  Selectivity ratio: 2.5
[3]
  pI50: 5.63

## Cc1nc(NCc2ccccc2)nc(C(F)(F)F)n1
[2]
  Selectivity ratio: 2.6
[3]
  pI50: 6.85

## CCOC(=O)c1nc(C)nc(NC(C)CC)n1 (centres undefined)
[1]
  pI50: 4.37
